Here are results for 13 molecules from PubChem BioAssay (NCI).

Some test systems named below: UACC-62 melanoma; U251 CNS; OVCAR-4 ovarian; HOP-62 NSCLC; BT-549 breast; NCI-H460 lung; HCT-15 colon; SF-268 CNS; T-47D breast; RPMI-8226 leukemia.
Test in all cases: growth of human tumour cells (NCI), 48 h

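These data come from cells grown in 96-well plates and exposed to compound for 48 hours at five concentrations. The concentration for full growth arrest is given as TGI.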

`CN(C)CCC(C#N)(c1ccccc1)c1ccccc1`: the TGI with UACC-62 melanoma, in the experiment with U251 CNS, with OVCAR-4 ovarian, in the experiment on HOP-62 NSCLC, in the experiment on BT-549 breast and with NCI-H460 lung was above 100 µM each time. The TGI in the experiment with HCT-15 colon was above 100 µM; in the experiment on SF-268 CNS, above 100 µM; in the experiment on T-47D breast it was above 100 µM; in the experiment on RPMI-8226 leukemia it was 80.5 µM.
`CC(=O)C1=C(C)N2C(=NC3=C(CCc4ccccc43)C2c2ccc(Cl)cc2)S1` (stereo not drawn): the TGI in the experiment with UACC-62 melanoma, in the experiment on U251 CNS, in the experiment with OVCAR-4 ovarian, with HOP-62 NSCLC, with BT-549 breast and in the experiment with NCI-H460 lung was above 100 µM in each case. In addition, the TGI was above 100 µM in the experiment on HCT-15 colon, above 100 µM in the experiment on SF-268 CNS, above 100 µM in the experiment with T-47D breast and 12.8 µM in the experiment on RPMI-8226 leukemia.
As to `CC(=O)O[C@H]1CC[C@@]2(C)C(=CC[C@@H]3[C@@H]2CC[C@]2(C)C(=O)/C(=C\c4ccccc4)C[C@@H]32)C1`, the TGI in the experiment with UACC-62 melanoma, in the experiment with U251 CNS, with OVCAR-4 ovarian, in the experiment with HOP-62 NSCLC, in the experiment with BT-549 breast and in the experiment with NCI-H460 lung was above 100 µM in each case. The TGI with HCT-15 colon, in the experiment on SF-268 CNS, in the experiment with T-47D breast and in the experiment with RPMI-8226 leukemia was above 100 µM in each case.
With `O=C(c1ccccc1)N1N=C(C(F)(F)F)CC1(O)C(F)(F)F` (stereo not drawn), the TGI in the experiment with U251 CNS, in the experiment on OVCAR-4 ovarian, in the experiment with HOP-62 NSCLC, with BT-549 breast, in the experiment with NCI-H460 lung and with HCT-15 colon was above 100 µM throughout. The TGI in the experiment on SF-268 CNS, in the experiment on T-47D breast and in the experiment with RPMI-8226 leukemia was above 100 µM throughout.
Consider `CC(=O)OC1=C(c2ccccc2)S(=O)(=O)c2ccccc21`, for which the TGI with UACC-62 melanoma, with U251 CNS, in the experiment with OVCAR-4 ovarian, in the experiment on HOP-62 NSCLC, with BT-549 breast and in the experiment with NCI-H460 lung was above 100 µM each time. Moreover, the TGI in the experiment on HCT-15 colon, in the experiment with SF-268 CNS, in the experiment with T-47D breast and in the experiment on RPMI-8226 leukemia was above 100 µM in each case.
Regarding `COc1ccc(Cc2nc3cc(C(F)(F)F)ccc3n2C[C@@H]2CCCN3CCCCC23)cc1` (stereo partly drawn), the TGI came to 11.5 µM in the experiment with UACC-62 melanoma; 27.7 µM in the experiment with U251 CNS; 25.1 µM in the experiment on OVCAR-4 ovarian; 23.2 µM in the experiment on HOP-62 NSCLC; 28.5 µM with BT-549 breast; 31.1 µM in the experiment with NCI-H460 lung. The TGI was 30.8 µM with HCT-15 colon, 19 µM in the experiment with SF-268 CNS, 22.9 µM in the experiment on T-47D breast and 94.8 µM in the experiment with RPMI-8226 leukemia.
Consider `CC(=O)OCCn1c(Cc2ccc(Cl)cc2)nn(C(C)=O)c1=O`, for which the TGI in the experiment with UACC-62 melanoma, in the experiment on U251 CNS, with OVCAR-4 ovarian, in the experiment with BT-549 breast, in the experiment on NCI-H460 lung and with HCT-15 colon was above 100 µM in each case. Further, the TGI in the experiment on SF-268 CNS, in the experiment with T-47D breast and with RPMI-8226 leukemia was above 100 µM each time.
As to `COc1cc(CCNC2=CC(=O)c3ncccc3C2=O)ccc1O`, the TGI with UACC-62 melanoma stood at 3.8 µM; with U251 CNS, 19.6 µM; with OVCAR-4 ovarian, 12.1 µM; in the experiment on HOP-62 NSCLC, 9.5 µM; with BT-549 breast, 2.99 µM; in the experiment on NCI-H460 lung, 2.71 µM. Moreover, the TGI is above 34.6 µM in the experiment on HCT-15 colon, 47.4 µM in the experiment with SF-268 CNS, above 63.6 µM in the experiment on T-47D breast and 30.5 µM with RPMI-8226 leukemia.
Take `COc1cc(Nc2nc(NS(=O)(=O)c3cc(C)c(Cl)cc3S)n[nH]2)cc(OC)c1OC`: the TGI in the experiment on UACC-62 melanoma, in the experiment on U251 CNS, in the experiment on OVCAR-4 ovarian, in the experiment with HOP-62 NSCLC, in the experiment with BT-549 breast and with NCI-H460 lung was above 100 µM each time. Besides, the TGI in the experiment on HCT-15 colon, in the experiment on SF-268 CNS, in the experiment on T-47D breast and in the experiment on RPMI-8226 leukemia was above 100 µM throughout.
Regarding `O=C1C(CN2CCCC2)CCC1CN1CCCC1` (stereo not drawn), the TGI in the experiment with UACC-62 melanoma was 32.9 µM; with U251 CNS it was above 100 µM; with OVCAR-4 ovarian, 48.7 µM; in the experiment with HOP-62 NSCLC, above 100 µM; in the experiment with BT-549 breast, 31.8 µM; with NCI-H460 lung it was above 100 µM. In addition, the TGI came to 31.8 µM in the experiment with HCT-15 colon, 46.2 µM in the experiment on SF-268 CNS, 37.8 µM in the experiment on T-47D breast and 34.9 µM in the experiment on RPMI-8226 leukemia.
`CC12CCC(C(=Nc3ccc([N+](=O)[O-])cc3)C1=O)C2(C)C` (stereo not drawn): the TGI is above 100 µM in the experiment with UACC-62 melanoma; 97.6 µM in the experiment on U251 CNS; 69.8 µM in the experiment with OVCAR-4 ovarian; 81.9 µM in the experiment with HOP-62 NSCLC; above 100 µM in the experiment with BT-549 breast; above 100 µM in the experiment on NCI-H460 lung. The TGI in the experiment with HCT-15 colon is above 100 µM; with SF-268 CNS, 47.3 µM; in the experiment on T-47D breast it was 69.5 µM; with RPMI-8226 leukemia, 52.3 µM.
With `C[C@@H](NC(=O)Nc1cccc(C(=O)Nc2cc(C(C)(C)C)ccc2C(=O)O)n1)c1ccccc1`, the TGI is 50.9 µM in the experiment on UACC-62 melanoma; 37.8 µM with U251 CNS; above 100 µM in the experiment on OVCAR-4 ovarian; 86.1 µM in the experiment with HOP-62 NSCLC; above 100 µM in the experiment on BT-549 breast; above 100 µM in the experiment on NCI-H460 lung. Moreover, the TGI in the experiment on HCT-15 colon, in the experiment with SF-268 CNS, in the experiment with T-47D breast and in the experiment with RPMI-8226 leukemia was above 100 µM in each case.
Regarding `COC(=O)[C@]1(CCC(C)=O)C(=O)C=CN([C@H](C)c2ccccc2)[C@@H]1Cc1ccc(OC)c(OCc2ccccc2)c1I`, the TGI with UACC-62 melanoma was 29.2 µM; with U251 CNS, 33.9 µM; with OVCAR-4 ovarian it was above 100 µM; in the experiment on HOP-62 NSCLC it was 51.7 µM; in the experiment with BT-549 breast, 46.3 µM; in the experiment with NCI-H460 lung, 30.7 µM. Also, the TGI in the experiment on HCT-15 colon amounted to 43.5 µM; in the experiment on SF-268 CNS, 38.7 µM; in the experiment on T-47D breast it was 49.4 µM; in the experiment with RPMI-8226 leukemia, 51.7 µM.
